# Assay results from US11718592B2, “Oxadiazole derivative” (Sumitomo Pharma Co., Ltd., priority 2020, dated 2023).
# Like-named read-outs stand apart in the source and are kept apart here. Marks after values point to notes of the source that are not given here.
# Key:
# Slc: ddy male mice = settings: mouse, in vivo, po, 1 h
# Protocol: The present test is a test for evaluating whether the test compound may disturb coordinated movement or not. Rotarod is an apparatus equipped with a rotating columnar bar whose diameter is 4 cm, in which a mouse is made to walk on the rotating bar, and the coordinated movement is evaluated from the result of walking (can walk or cannot walk). Slc: ddy male mice (purchased from Japan SLC, Inc., body weight: 20-30 g) were trained 3 hours before the test starts so that they could walk on a rotarod apparatus rotating with a speed of 12 rotations per minute for 5 minutes without falling. Only the mice which can walk in the training are used in the test. The test compound was orally administered to a group consisting of 5 mice. […] To control mice, 0.5% methylcellulose solution was administered as test compound, and the same test was also done. The coordinated movement was evaluated with the average of the five mice's walking time (second).
# GABA(A) receptors = assay: Evaluation of the potentiating effect on GABA(A) receptors (electrophysiology, GABA(A) receptor expressing cells); type: cell-based; settings: for Inhibition rate to the increased electric current by adding flumazenil: 2 μM GABA and test compound with 10 μM flumazenil; for The potentiating effect on GABA(A) receptors EC20: concentration giving 20% increase of the current generated by 2 μM GABA
# Protocol: Using GABA(A) receptor expressing cells prepared according to Guideline for Generation of Stable Cell Lines (website of Lonza Japan; Non-patent Literature 4), the present test is done for evaluating the potentiating effect of a drug on GABA(A) receptors based on the electric current raised by GABA. The GABA(A) receptor expressing cells were used in electrophysiological study, wherein the electric current was measured when 2 μM GABA solution and then a mixture of 2 μM GABA and the test compound were added to the cells. […] In addition, the electric current generated by a mixture of 2 μM GABA solution and the test compound with 10 μM flumazenil was measured, and the inhibition rate for the electric current by adding flumazenil was calculated compared to the electric current obtained in the absence of flumazenil.
# male Wister strain rats = assay: Antidepressant effect in rat forced swimming test; type: in vivo; settings: for antidepressant effect / immobility time (in words): oral; for average rate of deceasing the immobility time per that of the control group: swim 5 minutes an hour later
# Text: The present test can evaluate antidepressant effect of a drug. When a rat is thrown into a water bath from which the rat cannot escape to be made to swim, the rat takes on escape behavior in the beginning and then becomes immobile. Next day, when the rat is thrown into a water bath again, the immobility appears earlier than that of the first trial. The method can evaluate the antidepressant effect of a test compound by using the duration of the immobility time as an indicator of depressive behavior. A day before the test, male Wister strain rats (purchased from Charles River Laboratories Japan, body weight: 260-300 g) were made to swim in a water bath for 15 minutes. On the test day, the test compound was orally administered to the rats (10-12 rats in one group). An hour later, the rats were made to swim again for 5 minutes and each immobility time was measured. In the control group, 0.5% methylcellulose solution as the test compound was administered to the rats which were subjected to the same behavior test. The antidepressant effect was indicated by the average rate of deceasing the immobility time per that of the control group.
# BALB/c-Scn1a<+/−> mice = assay: Anticonvulsant effect in mouse model of Dravet syndrome with febrile seizures; type: in vivo; settings: oral; for Difference of the threshold temperature of convulsion from that of the control group: at the dose for anticonvulsive effect, hyperthermia 50 minutes after dosing; for Dose for anticonvulsive effect: dose needed to raise the threshold body temperature for inducing febrile seizures significantly compared with the control group
# Text: This is a test for evaluating the anticonvulsant effect for febrile seizures of the test compounds in a mouse model of Dravet syndrome. In this test, BALB/c-Scn1a<+/−> mice were used (catalog number: RBRC06422; they are available from RIKEN BioResource Research Center via the National BioResource Project). The present mouse model having a mutation in a responsible gene for Dravet syndrome, Scn1A, presents with symptoms similar to febrile seizures caused by hyperthermia which is a symptom in a patient suffering from Dravet syndrome, and can be used as an animal model of spontaneous Dravet syndrome (for reference: the Japan Epilepsy Research Foundation, Annual Report 2015: 26: 69-76). To male mice model of Dravet syndrome (one group: 5-8 mice, body weight: 20-30 g) were orally administered the test compound. 50 minutes later, the mice were put in a chamber warmed with hot bath to evoke hyperthermia, and observed about the development of febrile seizures. Immediately after febrile seizure was developed, the rectal temperature was measured and used as the threshold body temperature for inducing febrile seizures.
# ddY male mice = assay: Test with model produced by subcutaneous injection of pentetrazol (minimum convulsion model, scPTZ); type: in vivo; settings: 25 mg/kg oral administration
# Protocol: In order to evaluate an antiepileptic drug, in general, a model produced by subcutaneous injection of pentetrazol (minimum convulsion model, scPTZ) is used, which has high clinical predictability. […] In this test, an animal model which expresses generalized absence seizure or myoclonic seizure was used. Test compounds were orally administered to Sic: ddY male mice (purchased from Japan SLC, Inc., 5 mice in each group, body weight 20-30 g). After an hour, pentetrazol (85 mg/kg) was subcutaneously administered. […] To control mice, 0.5% methylcellulose solution was administered, and the same test was done. The results are represented as the number of mice with no convulsion, per 5 mice. The present test was deemed to succeed when 4 mice among 5 mice in the control group developed convulsions.
Structure (SMILES),average of the five mice's walking time (Slc: ddy male mice; 100 mg/kg) [s],Inhibition rate to the increased electric current by adding flumazenil (GABA(A) receptors) [%],The potentiating effect on GABA(A) receptors EC20 (GABA(A) receptors) [µM],Difference of the threshold temperature of convulsion from that of the control group (BALB/c-Scn1a<+/−> mice) [°C],Dose for anticonvulsive effect (BALB/c-Scn1a<+/−> mice) [mg/kg],also measured
"CN1C(=O)CCC1c1nc(-c2ccc(F)cc2)no1 (single isomer, unassigned) [Example 32]",65.3,<0,3.6,0.5,25,average of the five mice's walking time (Slc: ddy male mice; 50 mg/kg): 180 s; antidepressant effect / immobility time (in words) (male Wister strain rats): significantly decreased the immobility time; average rate of deceasing the immobility time per that of the control group (male Wister strain rats; oral 3 mg/kg): 25.3*; average rate of deceasing the immobility time per that of the control group (male Wister strain rats; oral 10 mg/kg): 31.6*; average rate of deceasing the immobility time per that of the control group (male Wister strain rats; oral 30 mg/kg): 58.9*
"CC(C)(C(N)=O)c1nc(-c2ccc(Cl)cc2)no1 [Example 2, 2-[3-(4-chlorophenyl)-1,2,4-oxadiazol-5-yl]-2-methylpropanamide]",180,<0,29,0.6,50,–
"CC(C)(C(N)=O)c1nc(-c2ccc(Br)cc2)no1 [Example 3, 2-[3-(4-bromophenyl)-1,2,4-oxadiazol-5-yl]-2-methylpropanamide]",180,<0,29,0.7,100,–
"CCC(CC)(C(N)=O)c1nc(-c2ccc(Cl)cc2)no1 [Example 11, 2-[3-(4-chlorophenyl)-1,2,4-oxadiazol-5-yl]-2-ethylbutanamide]",180,–,5.1,–,–,animals exhibiting anticonvulsant action (in words) (ddY male mice): more than half of the animals
"CC(C)(C(N)=O)c1noc(-c2ccc(Cl)cc2)n1 [Example 13, 2-[5-(4-chlorophenyl)-1,2,4-oxadiazol-3-yl]-2-methylpropanamide]",180,<0,71,0.6,50,–
"CC(C)(c1nc(-c2ccc(Cl)cc2)no1)S(N)(=O)=O [Example 18, 2-[3-(4-chlorophenyl)-1,2,4-oxadiazol-5-yl]propane-2-sulfonamide]",180,<0,37,–,–,–
"CC(C)(c1nc(-c2ccc(Br)cc2)no1)S(N)(=O)=O [Example 19, 2-[3-(4-bromophenyl)-1,2,4-oxadiazol-5-yl]propane-2-sulfonamide]",180,–,34,–,–,–
"CC(C)(c1noc(-c2ccc(Cl)cc2)n1)S(N)(=O)=O [Example 20, 2-[5-(4-chlorophenyl)-1,2,4-oxadiazol-3-yl]propane-2-sulfonamide]",180,55,20,0.6,100,–
"CC(C)(c1noc(-c2ccc(Br)cc2)n1)S(N)(=O)=O [Example 21, 2-[5-(4-bromophenyl)-1,2,4-oxadiazol-3-yl]propane-2-sulfonamide]",180,–,9.6,–,–,–
"CC(C)(c1nnc(-c2ccc(F)cc2)o1)S(N)(=O)=O [Example 22, 2-[5-(4-fluorophenyl)-1,3,4-oxadiazol-2-yl]propane-2-sulfonamide]",180,–,>300,–,–,–
"CC(C)(c1nnc(-c2ccc(Cl)cc2)o1)S(N)(=O)=O [Example 23, 2-[5-(4-chlorophenyl)-1,3,4-oxadiazol-2-yl]propane-2-sulfonamide]",180,–,190,–,–,–
"CC(C)(c1nnc(-c2ccc(Br)cc2)o1)S(N)(=O)=O [Example 24, 2-[5-(4-bromophenyl)-1,3,4-oxadiazol-2-yl]propane-2-sulfonamide]",180,–,86,–,–,–
"CN1C(=O)CCC1c1nc(-c2ccc(F)cc2F)no1 (centres unmarked) [Example 26, 5-[3-(2,4-difluorophenyl)-1,2,4-oxadiazol-5-yl]-1-methylpyrrolidin-2-one]",–,–,>100,–,–,average of the five mice's walking time (Slc: ddy male mice; 50 mg/kg): 180 s
"CN1C(=O)CCC1c1nc(-c2ccc(F)c(F)c2)no1 (centres unmarked) [Example 27, 5-[3-(3,4-difluorophenyl)-1,2,4-oxadiazol-5-yl]-1-methylpyrrolidin-2-one]",–,<0,39,–,–,average of the five mice's walking time (Slc: ddy male mice; 50 mg/kg): 180 s
"CN1C(=O)CCC1c1nc(-c2ccc(Cl)cc2)no1 (centres unmarked) [Example 29, 5-[3-(4-chlorophenyl)-1,2,4-oxadiazol-5-yl]-1-methylpyrrolidin-2-one]",–,7,1.1,0.7,25,average of the five mice's walking time (Slc: ddy male mice; 25 mg/kg): 180 s; average of the five mice's walking time (Slc: ddy male mice; 50 mg/kg): 146.4 s; antidepressant effect / immobility time (in words) (male Wister strain rats): significantly decreased the immobility time; average rate of deceasing the immobility time per that of the control group (male Wister strain rats; oral 3 mg/kg): 12.3; average rate of deceasing the immobility time per that of the control group (male Wister strain rats; oral 10 mg/kg): 29.4*
"CN1C(=O)CCC1c1nc(-c2ccc(Br)cc2)no1 (centres unmarked) [Example 30, 5-[3-(4-bromophenyl)-1,2,4-oxadiazol-5-yl]-1-methylpyrrolidin-2-one]",–,–,–,–,–,average of the five mice's walking time (Slc: ddy male mice; 50 mg/kg): 180 s; animals exhibiting anticonvulsant action (in words) (ddY male mice): more than half of the animals
"CN1C(=O)CN=C(c2ccccc2)c2cc(Cl)ccc21 [diazepam, reference compound]",–,93,0.03,–,–,"potentiating effect on GABA(A) receptors (in words) (GABA(A) receptors): has the potentiating effect on GABA(A) receptors; inhibition of the potentiating effect on GABA(A) receptors with flumazenil (in words) (GABA(A) receptors; flumazenil, benzodiazepine antagonist): strongly inhibited; antidepressant effect / immobility time (in words) (male Wister strain rats): did not show antidepressant effect; average rate of deceasing the immobility time per that of the control group (male Wister strain rats; oral 10 mg/kg): 18.3"
